Relative activity data for seven molecules are collected here from ChEMBL document CHEMBL1121807, “Potential thyroliberin affinity labels. 1. Chloroacetyl-substituted phenylalanylpyrrolidines” (1981).

The species named for test [1] is Rattus norvegicus. Description: Agonist activity relative to TRH (Thyroliberin) was evaluated in rat. In kind it is functional.
Test [2] is filed under the species Rattus norvegicus. Description: Agonist activity relative to TRH (Thyroliberin) was evaluated in rat at a dose of 0.6 ng. In kind it is functional.
For test [3], the species on record is Rattus norvegicus. The experiment in a line: Agonist activity relative to TRH (Thyroliberin) was evaluated in rat; None at a dose up to 30 ug. In kind it is functional, organism-based.
For test [4], the species on record is Rattus norvegicus. Description: Agonist activity relative to TRH (Thyroliberin) was evaluated in rat; none at a dose up to 30 ug. In kind it is functional, organism-based.

In test [1], `O=C(CCl)c1ccc(C(=O)NC(Cc2ccccc2)C(=O)N2CCCC2)cc1` (configuration not stated) returned a Relative activity of 0.0006%.

As to `NC(=O)[C@@H]1CCCN1C(=O)[C@H](Cc1c[nH]cn1)NC(=O)[C@@H]1CCC(=O)N1` [PROTIRELIN], in test [2], the Relative activity stood at 100%.

`O=C(CCl)NC(Cc1ccccc1)C(=O)N1CCCC1` (configuration not stated): in test [3], the Relative activity entry was “None”.

In test [1], `O=C(CCl)c1cccc(C(=O)NC(Cc2ccccc2)C(=O)N2CCCC2)c1` (configuration not stated) returned a Relative activity of 0.0012%.

With `C[C@H](NC(=O)c1ccc(C(=O)CCl)cc1)C(=O)N[C@@H](Cc1ccccc1)C(=O)N1CCCC1`, the Relative activity in test [1] came to 0.005%.

Consider `C[C@H](NC(=O)c1cccc(C(=O)CCl)c1)C(=O)N[C@@H](Cc1ccccc1)C(=O)N1CCCC1`, for which the Relative activity result in test [4] is listed as “None”.

For the molecule `C[C@H](NC(=O)CCl)C(=O)N[C@@H](Cc1ccccc1)C(=O)N1CCCC1`, the Relative activity entry in test [3] is reported as “None”.
